# Measured values as given in ChEMBL document CHEMBL1141966, “Novel triazole based inhibitors of Ras farnesyl transferase” (Bioorg Med Chem Lett, 2005).
# Target: Protein farnesyltransferase (Homo sapiens, UniProt P49354+P49356)
# Assay: Inhibitory activity against K-Ras farnesyl transferase
# Type: protein-complex assay
row,SMILES,IC50 [nM]
1,N#Cc1ccc(Cn2cnnc2CN(CCc2ccc(Br)cc2)C(=O)c2cc3ccccc3o2)cc1,53.2
2,N#Cc1ccc(Cn2cnnc2CN(CCc2ccc(Br)cc2)C(=O)c2ccc3c(c2)OCO3)cc1,61
3,N#Cc1ccc(Cn2cnnc2CN(Cc2ccc(F)cc2)C(=O)c2ccc3ccccc3n2)cc1,5
4,N#Cc1ccc(Cn2cnnc2CN(CCc2ccc(F)cc2)C(=O)c2ccc3ccccc3n2)cc1,19
5,N#Cc1ccc(Cn2cnnc2CN(C(=O)c2ccc3ccccc3n2)c2ccc(Oc3ccccc3)cc2)cc1,44
6,N#Cc1ccc(Cn2cnnc2CN(CCc2ccc(Br)cc2)C(=O)c2ccco2)cc1,99.3
7,COc1cc(C(=O)N(CCc2ccc(Br)cc2)Cc2nncn2Cc2ccc(C#N)cc2)nc2ccccc12,96.5
8,N#Cc1ccc(Cn2cnnc2CN(Cc2ccc([N+](=O)[O-])cc2)C(=O)c2ccc3ccccc3n2)cc1,1.6
9,N#Cc1ccc(Cn2cnnc2CN(CCc2ccc(Br)cc2)C(=O)c2ccc3ccccc3n2)cc1,26
10,N#Cc1ccc(Cn2cnnc2CN(CCc2ccc(Br)cc2)C(=O)c2ccc3ccccc3c2)cc1,28.3
11,N#Cc1ccc(Cn2cnnc2CN(CCc2ccc(Br)cc2)C(=O)c2cc3ccccc3s2)cc1,89.3
12,COc1ccc(CCN(Cc2nncn2Cc2ccc(C#N)cc2)C(=O)c2ccc3ccccc3n2)cc1,75

# Continued, values first:
row,IC50 [nM],SMILES
1,2.2,N#Cc1ccc(Cn2cnnc2CN(Cc2ccc(F)cc2F)C(=O)c2ccc3ccccc3c2)cc1
2,> 1000,N#Cc1ccc(Cn2nnnc2CN(Cc2ccc(F)cc2F)C(=O)c2ccc3ccccc3n2)cc1
3,5.5,N#Cc1ccc(Cn2cnnc2CN(Cc2ccc(F)cc2F)C(=O)c2ccc3ccccc3n2)nc1
4,3.5,N#Cc1ccc(Cn2cnnc2CN(Cc2ccc(F)cc2F)C(=O)c2ccc3ccccc3n2)cc1
5,0.9,Cc1nnc(CN(Cc2ccc(F)cc2F)C(=O)c2ccc3ccccc3n2)n1Cc1ccc(C#N)cc1
6,187,N#Cc1ccc(Cn2cncc2CN(Cc2ccc(F)cc2F)C(=O)c2ccc3ccccc3n2)cc1
